System: CD1 female mouse brain lipidome
Experiment: Brain-region lipid levels (HPLC/MS/MS lipidomics) 2 h after single i.p. 3 mg/kg CP 55,940 vs vehicle
Assay type: in vivo
Conditions: cortex
Procedure: The Bloomington Institutional Animal Care and Use Committee of Indiana University reviewed and approved the animal procedures. Female mice from the CD1 strain were utilized to match our study examining THC’s effects on the brain lipidome ([Leishman et al., 2018]). Mice were given a single i.p. injection of either 3 mg/kg CP or 1:1:18 cremophor:ethanol:saline vehicle (please refer to the section “3 mg/kg CP Is Relevant for Synthetic Cannabinoid Abuse and Has Stronger Effects on the Female Mouse Brain Lipidome During Adolescence” for a justification of dose and use of female mice). Three different age groups were given injections: PND 35 and PND 50 adolescents, and adult mice (PND 113). At least eight mice in each age group received CP and at least eight received vehicle. Matching the THC study time course ([Leishman et al., 2018]), mice were sacrificed via rapid decapitation 2 h after injection. Brains were immediately removed and flash-frozen in liquid nitrogen, and then stored at -80°C until dissections were performed. Brains were dissected on an ice-cold dissection plate into the following regions: STR, HIPP, CER, THAL, CTX, HYP, MID, and STEM. These abbreviations for these brain areas will be used exclusively when discussing the results generated by these specific dissections. Each dissected area was immediately placed in liquid nitrogen and then stored at -80°C until used for lipid extraction.
Tissue extracts were performed as previously described ([Bradshaw et al., 2006]; [Stuart et al., 2013]; [Raboune et al., 2014]; [Leishman et al., 2016a],[b], [2017], [2018]). First, samples were shock frozen in liquid nitrogen, weighed, and transferred to a centrifuge tube. The mass of the largest sample was multiplied by 50 to determine how many milliliters of HPLC-grade methanol (Fisher, Fair Lawn, NJ, United States) to add. Then, samples were spiked with 500 pmol deuterium-labeled NAGly (d8NAGly; Cayman Chemical, Ann Arbor, MI, United States). Samples were placed on ice in darkness for 2 h then individually homogenized and centrifuged at 19,000 × g for 20 min at 20°C. Supernatants were diluted with HPLC water (purified in house) to make a solution of 75% water, 25% supernatant. Lipids were partially purified on C18 solid phase extraction columns (Agilent, Palo Alto, CA, United States). A series of four elutions with 1.5 mL of 60%, 75%, 85%, and 100% methanol were collected ([Stuart et al., 2013]; [Leishman et al., 2016a],[b], [2018]).
As previously described ([Bradshaw et al., 2006]; [Tan et al., 2006]; [Smoum et al., 2010]; [Stuart et al., 2013]; [Tortoriello et al., 2013]; [Raboune et al., 2014]; [Leishman et al., 2016a],[b], [2017], [2018]), samples were analyzed using an Applied Biosystems API 3000 triple quadrupole mass spectrometer with electrospray ionization (Foster City, CA, United States). Using an Agilent XDB-C18 reversed phase analytical column and optimized mobile phase gradients, 20 μL from each elution were chromatographed. Two Shimadzu 10ADvp pumps (Columbia, MD, United States) provided the pressure for gradient elution. Mobile phase A: 20% methanol, 80% water (v/v) and 1 mM ammonium acetate (Sigma, St. Louis, MO, United States). Mobile phase B: 100% methanol, 1 mM ammonium acetate. Every method run began with 0% mobile phase B, reached 100% mobile phase B flowing at 0.2 mL/min, and gradually returned to 0% mobile phase B.
This screening library will be referred to as the lipidome when discussing data from this study. HPLC/MS/MS data were analyzed using Analyst software (Applied Biosystems) ([Bradshaw et al., 2006]; [Tan et al., 2006]; [Stuart et al., 2013]; [Tortoriello et al., 2013]; [Raboune et al., 2014]; [Leishman et al., 2016a],[b], [2017], [2018]). Chromatograms (Supplementary Figure 3) were generated by determining the retention time of analytes from the analytical column with a [M-1] or [M+1] parent peak and a fragmentation peak corresponding to the programmed values. […]

[1] = WT adult female mice, 3mg/kg CP 55,940

CCCCCCC(C)(C)c1ccc([C@@H]2C[C@H](O)CC[C@H]2CCCO)c(O)c1 [CP 55,940]
N-stearoyl alanine level, Mean [1]: 3.38E-12
N-stearoyl ethanolamine level, Mean [1]: 3.18E-11
N-stearoyl glycine level, Mean [1]: 1.95E-12
N-stearoyl leucine level, Mean [1]: 1.32E-12
N-stearoyl methionine level, Mean [1]: 3.92E-13
N-stearoyl phenylalanine level, Mean [1]: 1.71E-13
2-palmitoyl glycerol Direction (rel to Veh) (PND 35, 3 mg/kg CP 55,940): ↑
2-palmitoyl glycerol, Magnitude (x Veh level) (PND 35, 3 mg/kg CP 55,940): 1.57 x Veh level
6-ketoPGF1α Direction (rel to Veh) (PND 35, 3 mg/kg CP 55,940): ↓
6-ketoPGF1α Magnitude (x Veh level) (PND 35, 3 mg/kg CP 55,940): 0.68 x Veh level
N-arachidonoyl GABA Direction (rel to Veh) (PND 35, 3 mg/kg CP 55,940): ↓
N-arachidonoyl GABA Magnitude (x Veh level) (PND 35, 3 mg/kg CP 55,940): 0.83 x Veh level
N-arachidonoyl alanine Direction (rel to Veh) (PND 35, 3 mg/kg CP 55,940): ↓
N-arachidonoyl alanine Magnitude (x Veh level) (PND 35, 3 mg/kg CP 55,940): 0.77 x Veh level
N-arachidonoyl glycine Direction (rel to Veh) (PND 35, 3 mg/kg CP 55,940): ↓
N-arachidonoyl glycine Magnitude (x Veh level) (PND 35, 3 mg/kg CP 55,940): 0.75 x Veh level
N-arachidonoyl methionine Direction (rel to Veh) (PND 35, 3 mg/kg CP 55,940): ↓
N-arachidonoyl methionine, Magnitude (x Veh level) (PND 35, 3 mg/kg CP 55,940): 0.60 x Veh level
N-arachidonoyl phenylalanine Direction (rel to Veh) (PND 35, 3 mg/kg CP 55,940): ↓
N-arachidonoyl phenylalanine, Magnitude (x Veh level) (PND 35, 3 mg/kg CP 55,940): 0.76 x Veh level
N-arachidonoyl serine Direction (rel to Veh) (PND 35, 3 mg/kg CP 55,940): ↓
N-arachidonoyl serine Magnitude (x Veh level) (PND 35, 3 mg/kg CP 55,940): 0.75 x Veh level
N-arachidonoyl taurine Direction (rel to Veh) (PND 35, 3 mg/kg CP 55,940): ↓
N-arachidonoyl taurine Magnitude (x Veh level) (PND 35, 3 mg/kg CP 55,940): 0.83 x Veh level
N-arachidonoyl tyrosine Direction (rel to Veh) (PND 35, 3 mg/kg CP 55,940): ↓
N-arachidonoyl tyrosine, Magnitude (x Veh level) (PND 35, 3 mg/kg CP 55,940): 0.73 x Veh level
N-docosahexaenoyl GABA Direction (rel to Veh) (PND 35, 3 mg/kg CP 55,940): ↓
N-docosahexaenoyl GABA Magnitude (x Veh level) (PND 35, 3 mg/kg CP 55,940): 0.88 x Veh level
N-docosahexaenoyl glycine Direction (rel to Veh) (PND 35, 3 mg/kg CP 55,940): ↓
N-docosahexaenoyl glycine Magnitude (x Veh level) (PND 35, 3 mg/kg CP 55,940): 0.78 x Veh level
N-docosahexaenoyl leucine Direction (rel to Veh) (PND 35, 3 mg/kg CP 55,940): ↑
N-docosahexaenoyl leucine Magnitude (x Veh level) (PND 35, 3 mg/kg CP 55,940): 1.52 x Veh level
N-docosahexaenoyl serine Direction (rel to Veh) (PND 35, 3 mg/kg CP 55,940): ↓
N-docosahexaenoyl serine Magnitude (x Veh level) (PND 35, 3 mg/kg CP 55,940): 0.62 x Veh level
N-docosahexaenoyl valine Direction (rel to Veh) (PND 35, 3 mg/kg CP 55,940): ↑
N-docosahexaenoyl valine Magnitude (x Veh level) (PND 35, 3 mg/kg CP 55,940): 1.37 x Veh level
N-linoleoyl GABA Direction (rel to Veh) (PND 35, 3 mg/kg CP 55,940): ↓
N-linoleoyl GABA Magnitude (x Veh level) (PND 35, 3 mg/kg CP 55,940): 0.88 x Veh level
N-linoleoyl glycine Direction (rel to Veh) (PND 35, 3 mg/kg CP 55,940): ↓
N-linoleoyl glycine Magnitude (x Veh level) (PND 35, 3 mg/kg CP 55,940): 0.69 x Veh level
N-oleoyl GABA Direction (rel to Veh) (PND 35, 3 mg/kg CP 55,940): ↓
N-oleoyl GABA Magnitude (x Veh level) (PND 35, 3 mg/kg CP 55,940): 0.81 x Veh level
N-oleoyl alanine Direction (rel to Veh) (PND 35, 3 mg/kg CP 55,940): ↓
N-oleoyl alanine Magnitude (x Veh level) (PND 35, 3 mg/kg CP 55,940): 0.75 x Veh level
N-oleoyl glycine Direction (rel to Veh) (PND 35, 3 mg/kg CP 55,940): ↓
N-oleoyl glycine Magnitude (x Veh level) (PND 35, 3 mg/kg CP 55,940): 0.89 x Veh level
N-oleoyl leucine Direction (rel to Veh) (PND 35, 3 mg/kg CP 55,940): ↑
N-oleoyl leucine Magnitude (x Veh level) (PND 35, 3 mg/kg CP 55,940): 1.22 x Veh level
N-oleoyl methionine Direction (rel to Veh) (PND 35, 3 mg/kg CP 55,940): ↓
N-oleoyl methionine, Magnitude (x Veh level) (PND 35, 3 mg/kg CP 55,940): 0.67 x Veh level
N-oleoyl valine Direction (rel to Veh) (PND 35, 3 mg/kg CP 55,940): ↑

From paper PMC6277767, “Broad and Region-Specific Impacts of the Synthetic Cannabinoid CP 55,940 in Adolescent and Adult Female Mouse Brains” (Frontiers in Molecular Neuroscience, 2018)
